The target in assay [1] is human GABAA α5β2γ1 receptor (Homo sapiens (Human), UniProt P31644+Q8N1C3). Kind of assay: Radioligand binding assay, competition for [3H]RO7239181, γ1-containing GABAA subtypes. The settings on record: membranes from HEK293F cells, mean of two determinations. The procedure: Membrane Preparation and Binding Assay for γ1-containing GABAA Subtypes
The affinity of compounds at GABAA γ1 subunit-containing receptors was measured by competition for [^3H]RO7239181 (67.3 Ci/mmol: Roche) binding to membranes from HEK293F cells (ThermoFisher R79007) expressing human (transiently transfected) receptors of composition α5β2γ1, α2β2γ1, α1β2γ1. For better protein expression of the α2 subunit-containing receptors, the 28 amino acid long signal peptide (Metl to Ala28) of the human GABAA α2 subunit was substituted by the 31 amino acid long signal peptide (Met1 to Ser31) of human GABAA α5 subunit.
Harvested pellets from HEK293F cells expressing the different GABAA receptor subtypes were resuspended in Mannitol Buffer pH 7.2-7.4 (Mannitol 0.29 M, Tricthylamine 10 mM. Acetic acid 10 mM. EDTA 1 mM plus protease inhibitors (20 tablets Complete. Roche Diagnostics Cat. No. 05 056 489 001 per liter)), washed two times and then resuspended at 1:10 to 1:15 dilution in the same buffer. Cell disruption was performed by stirring the suspension in a Parr vessel #4637 at 435 psi for 15 minutes, and then the suspensions were centrifuged at 1000×g for 15 minutes at 4° C. (Beckman Avanti J-HC: rotor JS-4.2). The supernatant (S1) was transferred in a 21 Schott flask and the pellet (P1) was resuspended with Mannitol Buffer up to 175 ml. The resuspended pellet was transferred into a 250 ml Corning centrifugal beaker and centrifuged at 1500 ×g for 10 minutes at 4° C. (Beckman Avanti J-HC: rotor JS-4.2). The supernatant (S1) was then transferred in the 21 Schott flask and the pellet was discarded. The supernatants (S1) were centrifuged in 500ml Beckman polypropylene centrifugal beaker at 15 000×g for 30 minutes at 4° C. (Beckman Avanti J-20 XP; rotor JLA-10.500). The pellet (P2) was resuspended with Mannitol Buffer 1:1 and frozen at −80° C. The supernatant (S2) was centrifuged in 100 ml Beckman polypropylene centrifugal tubes at 48000×g for 50 minutes at 4 °C (Beckman Avanti J-20 XP: rotor JA-18). The supernatant (S3) was discarded and the pellet (P3) was resuspended with 1:1 Mannitol Buffer. The P2 and P3 protein concentration was determined with the BIORAD Standard assay method with bovine serum albumin as standard and measured on the NANO-Drop 1000. The membrane suspension was aliquots (500μl per tube) and stored at −80° C. until required.
Membrane homogenates were resuspended and polytronised (Polytron PT1200E Kinematica AG) in Potassium Phosphate 10 mM, KCl 100 mM binding buffer at pH 7.4 to a final assay concentration determined with a previous experiment.
Radioligand binding assays were carried out in a volume of 200 μL (96-well plates) which contained 100 μL of cell membranes. [^3H]RO7239181 at a concentration of 1.5 nM (α5β2γ1) or 20-30 nM (α1β2γ1, α2β2γ1) and the test compound in the range of [0.3-10000]33 10^−9 M. Nonspecific binding was defined by […] (α5β2γ1) and […] RO7239181 and typically represented less than 5% (α5β2γ1) and less than 20% (α1β2γ1, α2β2γ1) of the total binding. Assays were incubated to equilibrium for 1 hour at 4° C. and then, membranes were filtered onto unifilter (96-well white microplate with bonded GF/C filters preincubated 20-50 minutes in 0.3% Polyethylenimine) with a Filtermate 196 harvester (Packard BioScience) and washed 4 times with cold Potassium Phosphate 10 mM pH 7.4. KCl 100 mM binding buffer. After anhydrousing, filter-retained radioactivity was detected by liquid scintillation counting. Ki values were calculated using Excel-Fit (Microsoft) and are the means of two determinations.
Representative test results, obtained by the above described assay measuring binding affinity to HEK293 cells expressing human (h) receptors, are shown in the Table 1.

For assay [2], the target named is human GABAA α1β2γ1 receptor (Homo sapiens (Human), UniProt P14867+Q8N1C3). Described as above.

Broadly, the Ki is the dissociation constant of the complex between target and ligand, obtained from inhibition or displacement. Higher therefore signals a looser hold on the target. In the case of `Cc1nnc2n1-c1sc3c(c1C(c1c(F)cccc1F)=NC2)C[C@@H](C(F)F)C3` [Example 3, (13R)-13-(difluoromethyl)-9-(2,6-difluorophenyl)-3-methyl-16-thia-2,4,5,8-tetrazatetracyclo [8.6.0.02,6.011,15]hexadeca-1(10),3,5,8,11(15)-pentaene], the Ki in assay [1] turned out to be 1.8 nM; in assay [2], 16.8 nM.

On to `Cc1nnc2n1-c1sc3c(c1C(c1c(F)cccc1F)=N[C@H]2C)C[C@@H](C(F)F)C3` [Example 5, (7S,13R)-13-(difluoromethyl)-9-(2,6-difluorophenyl)-3,7-dimethyl-16-thia-2,4,5,8-tetrazatetracyclo [8.6.0.02,6.011,15]hexadeca-1(10),3,5,8,11(15)-pentaene], for which the inhibitory constant (Ki) is 1.2 nM in assay [1] and 14.4 nM in assay [2].

(Values after patent US20240190889A1, “NEW CYCLOPENTA-THIENO-DIAZEPINE DERIVATIVES AS GABA A GAMMA1 POSITIVE ALLOSTERIC MODULATORS” (Hoffmann-La Roche Inc., priority 2021, published 2024).)
